Data published in patent US6642434B1, “Transgenic plants with γ-tocopherol methyltransferase” (University of Community College System of Nevada, priority 1997, dated 2003).

Assays:
[1] = test system: Synechocystis γ-tocopherol methyltransferase (SLR0089); experiment: γ-TMT assay with Synechocystis SLR0089 protein expressed in E. coli; format: biochemical, Synechocystis PCC6803; conditions: for use as substrate (methylation) by Synechocystis γ-TMT: 5 mM substrate, pH 7.5, 14C-methyl-SAM, 30 minutes room temperature
Procedure: (§1) The p011698-1 and p011898-1 constructs were used to transform the E. coli T7 expression host BL21(DE3). To generate protein for γ-TMT assays, one liter cultures of transformed host cells containing one of the constructs were grown in Luria broth containing 100 mg/liter ampicillin. Each culture was started at an optical density at 600 nm (OD600) of 0.1 and incubated in a shaking incubator at 28° C. until the culture reached an OD600 of 0.6, at which time isopropyl-, β-D-thiogalactopyranoside (IPTG) was added to each culture to obtain a final concentration of 0.4 mM IPTG. Each culture was incubated for an additional 3 hours at 28° C. and the cells were harvested by centrifugation at 8,000 g. The cell pellets were then resupended in 10 ml of 10 mM HEPES (pH 7.8), 5 mM DTT, 0.24 M sorbitol, 1 mM PMSF. The cells were lysed by sonication with a micro-tip sonicator using four 10-second pulses. Triton×100 was added to each homogenate to a final concentration of 1%. The homogenates were incubated on ice for 30 minutes, and subjected to centrifugation at 30,000 g for 30 minutes at 4° C. The supernatants of these extracts were assayed for γ-tocopherol methyltransferase activity as follows.
(§2) The γ-TMT assays were performed in 250 μl volumes containing 50 mM Tris (pH 7.5 for the Synechocystis and pH 8.5 for the Arabidopsis enzyme), 5 mM DTT, 5 mM γ- or δ-tocopherol, and 0.025 μCi (55 μCi/mmole) (^14C-methyl)-S-adenosylmethionine. Reaction mixtures were incubated at room temperature for 30 minutes. The reactions were stopped by adding of 1 ml of 2:1 (v:v) CHCl3: methanol containing 1 mg/ml butylated hydroxytolulene (BHT) and 250 μl of 0.9% NaCl in water, and vortexing. The samples were centrifuged to separate the phases. The CHCl3 (lower) phase was transferred to a fresh tube containing […] of α-tocopherol and the CHCl3 was then removed under vacuum in a speed-vac. The dried lipid fraction was resuspended in 50 μl ethyl acetate containing 1 mg/ml BHT. The lipid extracts were fractionated on silica 60 TLC plates in dichloromethane. Tocopherols were then identified by co-migration with authentic tocopherol standards after staining the plate with Emmerie-Engels solution (0.1% FeCl3, 0.25% 2,2′-dipyridyl in ethanol). The band corresponding to α-tocopherol was scraped from the TLC plate and the amount of radioactive material present was determined by scintillation counting.
(§3) The Synechocystis and Arabidopsis γ-tocopherol methyltransferases were tested for activity using several different methyl-substituted tocopherol substrates. […] The two enzymes were unable to use tocol, 5,7-diemethyltocol, β-tocopherol, and γ-tocotrienol as substrates. […] The Synechocystis and Arabidopsis γ-TMTs appear to require substrates with a methyl-group present on the 8 position of the chromanol ring and a fully saturated prenyl-tail for activity.

[2] = target: T1, Arabidopsis γ-tocopherol methyltransferase (165H5T7) (Arabidopsis thaliana, UniProt Q9ZSK1); experiment: γ-TMT assay with Arabidopsis 165H5T7 protein expressed in E. coli; format: biochemical; conditions: for use as substrate (methylation) by Arabidopsis γ-TMT: 5 mM substrate, pH 8.5, 14C-methyl-SAM, 30 minutes room temperature
T1 construct: made in house; host or cells: E. coli BL21(DE3), pET3D vector; Triton X-100 supernatant of the lysate
T1 sequence (Q9ZSK1 51-348): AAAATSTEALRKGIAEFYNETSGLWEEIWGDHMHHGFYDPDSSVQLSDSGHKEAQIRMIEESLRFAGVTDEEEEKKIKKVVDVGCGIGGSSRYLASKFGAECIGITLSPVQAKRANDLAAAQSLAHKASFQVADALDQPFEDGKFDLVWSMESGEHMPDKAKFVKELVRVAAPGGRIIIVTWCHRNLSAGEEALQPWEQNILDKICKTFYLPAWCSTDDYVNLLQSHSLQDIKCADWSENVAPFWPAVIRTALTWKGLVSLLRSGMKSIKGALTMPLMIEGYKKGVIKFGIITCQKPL
Procedure: as §1, §2, §3

| SMILES | relative activity of Synechocystis γ-TMT toward γ- and δ-tocopherol [1] | use as substrate (methylation) by Synechocystis γ-TMT [1] | relative activity of Arabidopsis γ-TMT toward γ- and δ-tocopherol [2] | use as substrate (methylation) by Arabidopsis γ-TMT [2] |
| --- | --- | --- | --- | --- |
| Cc1cc(O)cc2c1O[C@](C)(CCC[C@H](C)CCC[C@H](C)CCCC(C)C)CC2 [δ-tocopherol] | equally active toward γ-tocopherol and δ-tocopherol | able to specifically convert δ-tocopherol to β-tocopherol | greater activity with γ-tocopherol as the substrate than with the δ-tocopherol substrate | able to specifically convert δ-tocopherol to β-tocopherol |
| Cc1c(O)cc2c(c1C)O[C@](C)(CCC[C@H](C)CCC[C@H](C)CCCC(C)C)CC2 [γ-tocopherol] | equally active toward γ-tocopherol and δ-tocopherol | able to convert γ-tocopherol to α-tocopherol | greater activity with γ-tocopherol as the substrate than with the δ-tocopherol substrate | able to convert γ-tocopherol to α-tocopherol |
| CC(C)CCCC(C)CCCC(C)CCCC1(C)CCc2cc(O)ccc2O1 (stereo not shown) [tocol] | – | unable to use | – | unable to use |
| Cc1cc2c(c(C)c1O)CCC(C)(CCCC(C)CCCC(C)CCCC(C)C)O2 (stereo not shown) [5,7-diemethyltocol] | – | unable to use | – | unable to use |
| Cc1cc(O)c(C)c2c1O[C@](C)(CCC[C@H](C)CCC[C@H](C)CCCC(C)C)CC2 [β-tocopherol] | – | unable to use | – | unable to use |
| CC(C)=CCC/C(C)=C/CC/C(C)=C/CC[C@]1(C)CCc2cc(O)c(C)c(C)c2O1 [γ-tocotrienol] | – | unable to use | – | unable to use |
